Series [1] addresses T1, Tubulin (Sus scrofa) (UniProt P02554+P02550). The series is described as follows: Induction of porcine tubulin polymerization measured at 1 min interval for 1 hr. It is filed as protein assay.
Series [2] has as its target T2, Tubulin (Homo sapiens) (UniProt P68371+Q9H4B7+P0DPH7+P68366+Q13509+Q71U36+P04350+Q3ZCM7+P07437+P68363+Q9BQE3+Q6PEY2+Q13885+Q9BVA1+Q9BUF5). The series can be described thus: Induction of microtubule stabilization in human HCC1937 cells assessed as co-localization of compound with microtubule at 5 uM after 24 hrs by fluorescence assay. In kind it is cell-based.
For series [3], the target named is T2, Tubulin (Homo sapiens). The series can be described thus: Induction of microtubule stabilization in human HCC1937 cells at 5 uM after 6 hrs by live cell fluorescence imaging. In kind it is cell-based.
Series [4] concerns the target T1, Tubulin (Sus scrofa). The series can be described thus: Induction of porcine tubulin polymerization at 5 to 10 uM measured at 1 min interval for 1 hr. In kind it is protein assay.
Series [5] addresses T2, Tubulin (Homo sapiens). The series is described as follows: Induction of microtubule stabilization in human HCC1937 cells assessed as bundling of microtubules at 5 uM after 24 hrs by immunofluorescence assay. In kind it is cell-based.
For a further series, the system named is HeLa. The series is described as follows: Antiproliferative activity against human HeLa cells after 48 hrs by sulforhodamine B assay. It is filed as functional, cell-based.
Series [6] is described as follows: Stability of the compound in aqueous solution after 24 hrs. In kind it is physicochemical. Particulars: buffer.

Among the data in ChEMBL document CHEMBL4422691, “Identification of C-6 as a New Site for Linker Conjugation to the Taccalonolide Microtubule Stabilizers” (J Nat Prod, 2019) are Activity, IC50 and Stability values, retold here.

Activity calls are given as the source filed them. No cut-off for these calls is given here.

T1 sequence (P02550 whole entry, looked up): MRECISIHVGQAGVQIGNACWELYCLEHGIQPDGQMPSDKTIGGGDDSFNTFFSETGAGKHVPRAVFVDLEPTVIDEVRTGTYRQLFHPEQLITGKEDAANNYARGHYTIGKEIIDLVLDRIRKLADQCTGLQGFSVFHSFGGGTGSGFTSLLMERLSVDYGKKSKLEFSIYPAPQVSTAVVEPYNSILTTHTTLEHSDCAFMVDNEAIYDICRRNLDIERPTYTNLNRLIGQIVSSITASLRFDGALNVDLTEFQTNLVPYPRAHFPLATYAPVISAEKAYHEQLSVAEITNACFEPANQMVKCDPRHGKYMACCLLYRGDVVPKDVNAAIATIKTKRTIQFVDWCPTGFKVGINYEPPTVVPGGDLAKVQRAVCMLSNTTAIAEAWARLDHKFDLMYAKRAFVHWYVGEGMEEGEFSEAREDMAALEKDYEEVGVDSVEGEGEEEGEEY
T1 sequence (P02554 whole entry, looked up): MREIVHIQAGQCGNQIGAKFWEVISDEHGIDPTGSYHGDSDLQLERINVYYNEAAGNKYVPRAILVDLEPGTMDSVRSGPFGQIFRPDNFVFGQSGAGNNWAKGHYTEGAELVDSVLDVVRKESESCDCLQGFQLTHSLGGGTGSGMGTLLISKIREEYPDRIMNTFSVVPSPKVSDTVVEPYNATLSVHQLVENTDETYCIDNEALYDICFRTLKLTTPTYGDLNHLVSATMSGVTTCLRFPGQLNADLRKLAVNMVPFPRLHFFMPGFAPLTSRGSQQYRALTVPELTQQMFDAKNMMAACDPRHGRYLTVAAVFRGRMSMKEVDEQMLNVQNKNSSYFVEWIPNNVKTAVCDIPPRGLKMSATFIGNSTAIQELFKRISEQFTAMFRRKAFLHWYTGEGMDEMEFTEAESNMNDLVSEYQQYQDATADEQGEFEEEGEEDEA

Regarding `CC(=O)O[C@H]1[C@H]2[C@H]([C@@H]3[C@@H](O)[C@@H]4[C@H]([C@H](C)[C@@H]5O[C@@]56OC(=O)[C@@](C)(O)[C@]46C)[C@@]3(C)[C@H]1OC(C)=O)[C@@H](O)C(=O)[C@H]1C[C@@H]3O[C@@H]3[C@H](OC(C)=O)[C@]21C`, the Activity entry at Tubulin (Sus scrofa) [1] is “Dose-dependent effect”.
Consider `CC(=O)O[C@H]1[C@H]2[C@@H]([C@@H](O)[C@@H](OC(=O)CCCCn3cc(COc4ccc5c(c4)Oc4cc(O)ccc4C54OC(=O)c5ccccc54)nn3)[C@H]3C[C@@H]4O[C@@H]4[C@H](OC(C)=O)[C@]23C)[C@@H]2[C@@H](O)[C@@H]3[C@H]([C@H](C)[C@H]4O[C@]45OC(=O)[C@@](C)(O)[C@]35C)[C@@]2(C)[C@H]1OC(C)=O` (some centres not stated), for which the outcome at Tubulin (Homo sapiens) [2], on Tubulin (Homo sapiens) [3], on Tubulin (Sus scrofa) [4] and at Tubulin (Homo sapiens) [5] was Active. Further, the IC50 in the series with HeLa amounted to 2500 nM. The Stability result in series [6] is “Stable”.

In general, IC50 refers to the midpoint of a concentration-inhibition curve. Lower therefore signals inhibition by little substance.
